Patent US20080090805A1, “CB-1 MODULATING COMPOUNDS AND THEIR USE” (ACADIA PHARMACEUTICALS INC., priority 2005, published 2008)
Read-outs that look alike come from different tables or passages of the source.

Molecular target: CB1 (mutant) (Homo sapiens, UniProt P21554)
Assay: R-SAT functional receptor assay, CB1 (mutant, truncated after amino acid 417)
Type: cell-based
Conditions: R-SAT CB1; for IC50: receptor form (mutant or wild-type) not stated; for Emax / % Inhibition: receptor form not stated, relative to SR141716 (100%); for Emax: read-out: % Inhibition
[1] = Appendix A, read-out: pIC50 (converted)

CB1 (mutant), sequence (P21554 1-417, change not shown): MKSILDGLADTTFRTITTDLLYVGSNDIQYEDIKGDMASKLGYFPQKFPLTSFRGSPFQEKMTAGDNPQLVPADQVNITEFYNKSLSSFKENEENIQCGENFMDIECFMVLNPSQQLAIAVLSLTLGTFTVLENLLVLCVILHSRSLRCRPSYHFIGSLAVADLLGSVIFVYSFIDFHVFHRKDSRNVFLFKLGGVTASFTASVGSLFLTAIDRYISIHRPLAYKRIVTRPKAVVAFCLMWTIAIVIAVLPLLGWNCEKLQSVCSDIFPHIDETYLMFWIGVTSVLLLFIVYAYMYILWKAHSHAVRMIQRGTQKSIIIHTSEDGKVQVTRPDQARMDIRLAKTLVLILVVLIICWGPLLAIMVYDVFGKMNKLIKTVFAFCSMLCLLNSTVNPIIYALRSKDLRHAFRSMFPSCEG

SMILES | IC50 [1] | Emax (Appendix A) | % Inhibition (Appendix A) | IC50 (pIC50, Appendix A)
Cc1ccsc1C1=Nc2cc(C(=O)NCCC(C)C)ccc2Sc2ccccc21 [drawing 945] | 20 nM | 106% |  | 
Cc1ccc(CNC(=O)c2ccc3c(c2)N=C(c2cccc(F)c2)c2ccccc2S3)o1 [drawing 947] |  | 69% |  | 20 nM
Cc1ccc(CNC(=O)c2ccc3c(c2)N=C(c2sccc2C)c2ccccc2S3)o1 [drawing 953] | 20 nM | 79% |  | 
O=C(NCc1ccccc1Cl)c1ccc2c(c1)N=C(c1cccc(Cl)c1)c1ccccc1S2 [drawing 955] | 20 nM | 102% |  | 
O=C(NN1CCCCC1)c1ccc2c(c1)N=C(c1ccc(Cl)cn1)c1ccccc1S2 [drawing 959] | 20 nM | 112% |  | 
O=C(NCc1ccc(F)cc1)c1ccc2c(c1)N=C(c1ccc(Cl)cc1)c1ccccc1S2(=O)=O [drawing 961] | 20 nM | 108% |  | 
CC(C)CCNC(=O)c1ccc2c(c1)N=C(c1ccccn1)c1ccccc1S2 [drawing 967] | 20 nM |  |  | 
Cc1ccc(N2CCN(C(=O)c3ccc4c(c3)N=C(c3ccc(Cl)cc3)c3ccccc3S4)CC2)c(C)c1 [drawing 970] | 316 nM | 94% |  | 
O=C(NCCc1cccc(Cl)c1)c1ccc2c(c1)N=C(N1CCCCC1)c1ccccc1S2 [drawing 973] | 20 nM | 108% |  | 
CCCC1=Nc2cc(C(=O)NC3CCC(C)CC3)ccc2Sc2ccccc21 (stereo not shown) [drawing 975] |  | 114% |  | 20 nM
O=C(NCc1ccncc1)c1ccc2c(c1)N=C(c1cccc(Br)c1)c1ccccc1S2 [drawing 977] | 20 nM | 95% |  | 
O=C(NCCc1cccnc1)c1ccc2c(c1)N=C(c1cccc(F)c1)c1ccccc1S2 [drawing 981] |  | 94% |  | 20 nM
O=C(NN1CCCCC1)c1ccc2c(c1)N=C(C1CCCCC1)c1ccccc1S2 [drawing 987] |  |  | 101% | 
O=C(NN1CCCCC1)c1ccc2c(c1)N=C(c1ccc(Cl)c(Cl)c1)c1ccccc1S2 [drawing 989] | 25.1 nM | 105% |  | 
O=C(NN1CCCCC1)c1ccc2c(c1)N=C(c1ccc(Cl)c(F)c1)c1ccccc1S2 [drawing 991] | 25.1 nM | 110% |  | 
O=C(NN1CCCCC1)c1ccc2c(c1)N=C(c1ccc(Br)cc1)c1ccccc1S2 [drawing 993] | 25.1 nM | 92% |  | 

Second part, led by results:

IC50 [1] | Emax (Appendix A) | % Inhibition (Appendix A) | SMILES | IC50 (pIC50, Appendix A)
20 nM | 115% |  | C[C@@H]1CCC[C@H](C)N1NC(=O)c1ccc2c(c1)N=C(c1ccc(F)cc1)c1ccccc1S2 [drawing 943] | 
20 nM | 110% |  | CC(C)CNC(=O)c1ccc2c(c1)N=C(c1ccc(Cl)cc1)c1ccc(F)cc1S2 [drawing 949] | 
20 nM |  | 108% | O=C(NC1CCCCC1)c1ccc2c(c1)N=C(c1ccc(F)cc1)c1ccccc1S2 [drawing 951] | 
20 nM |  | 95% | COCCNC(=O)c1ccc2c(c1)N=C(c1ccc(Cl)s1)c1ccccc1S2 [drawing 963] | 
20 nM | 104% |  | COc1ccc(C2=Nc3cc(C(=O)NCCC(C)C)ccc3Sc3ccccc32)cc1 [drawing 965] | 
20 nM |  | 105% | CCCNC(=O)c1ccc2c(c1)N=C(c1ccc(Cl)cc1)c1ccccc1S2 [drawing 969] | 
25.1 nM | 110% |  | CC(C)CNC(=O)c1ccc2c(c1)N=C(c1ccc(Cl)s1)c1ccc(Cl)cc1S2 [drawing 983] | 
25.1 nM | 109% |  | CCCCNC(=O)c1ccc2c(c1)N=C(c1ccc(Cl)cc1)c1ccc(F)cc1S2 [drawing 985] | 
25.1 nM | 107% |  | CCCCNC(=O)c1ccc2c(c1)N=C(c1ccc(Cl)s1)c1cc(Cl)ccc1S2 [drawing 995] | 
25.1 nM | 110% |  | CCCCNC(=O)c1ccc2c(c1)N=C(c1cccc(Cl)c1)c1cc(Cl)ccc1S2 [drawing 997] | 
25.1 nM |  | 91% | O=C(NCCc1ccccn1)c1ccc2c(c1)N=C(c1cccc(Cl)c1)c1ccccc1S2 [drawing 999] | 
